Article PMC10508264, “Exploring the antioxidant, antimicrobial, cytotoxic and biothermodynamic properties of novel morpholine derivative bioactive Mn(II), Co(II) and Ni(II) complexes – combined experimental and theoretical measurements towards DNA/BSA/SARS-CoV-2 3CL^Pro” (RSC Medicinal Chemistry, 2023)

What was measured:
DNA = DNA cleavage by gel electrophoresis under H2O2; assay type: biochemical; conditions: H2O2 environment
Source text: In a cellular system, DNA base pairs can be broken by a variety of mechanisms, including errors in DNA replication, generation of a heteroduplex during homologous recombination, spontaneous deamination of cytosine, and base pairs broken by mutagens or ionizing radiation, which also lead to improper base pairing and mutations. Also, metal complexes have the capability of recognizing DNA mismatches and may become vital entities for investigation and possibly for clinical applications.[55] Moreover, the cleavage of one or both DNA strands is a typical and essential process for maintaining cell viability: during DNA replication and transcription, topoisomerase enzymes correct topological issues, and various nucleases take part in repair mechanisms and DNA degradation, which is one of the distinguishing features of apoptotic programmed cell death. Similarly, several antitumor drugs have the potential to cleave DNA by inducing apoptosis, which eventually leads to cancer cell death. Conversely, molecules that can interact with DNA's major or minor grooves are known as groove-binding molecules, which disrupt and impair the function of the DNA double helix via various non-covalent interactions. The DNA nuclease properties of all samples were assessed in an H2O2 environment by the gel electrophoresis method. DNA cleavage was monitored during the conversion of supercoiled plasmids into linear and nicked DNA fragments. Also, the observed DNA nuclease efficacy for all complexes (1–3) was compared with the free ligand (HL) and CT-DNA alone. No substantial nuclease activity can be seen in the control (Fig. 1 and S13 ^†) (lane 1; DNA + H2O2) even after a lot of time has passed, and free ligand (HL) (lane 2) was monitored as immobile in an H2O2 environment. […] Consequently, it is commonly acknowledged that ROS plays a dual physiological role in controlling a variety of illnesses as well as cellular homeostasis (self-regulating processes like thermoregulation, blood glucose regulation, calcium/potassium homeostasis, and osmoregulation).[56] […] Additionally, it is widely known that the NADPH oxidase enzyme produces reactive oxygen species as part of its antibacterial effect on phagocytic cells. Nevertheless, these types of enzyme seem to be present in a variety of other cells and may have significant signalling pathway functions. When non-carcinogenic toxicity events occur, ROS has the ability to alter cell function as well as to affect the genesis of cancer at several levels. OH˙ can attack DNA, proteins, and lipids due to its high reactivity among ROS. Also, the hydroxyl radical is a key participant in free-radical-mediated hazardous reactions because of its great reactivity. […]

CT-DNA = experiment: DNA binding by UV-vis absorption titration; conditions: for % H (hypochromism): Tris-HCl pH 7.4, 25 °C; for Kb, BH-I (Benesi–Hildebrand method I) / Kb, BH-II (Benesi–Hildebrand method II) / Kb, SK-I (Sakthi–Krause method I) / Kb, SK-II (Sakthi–Krause method II) / Kb, WS-I (Wolfe–Shimmer method I) / Kb, WS-II (Wolfe–Shimmer method II): pH 7.4, 25 °C
Method: The DNA-binding experiment was conducted with an electronic absorption spectrophotometer by raising the DNA concentration from zero to 50 μM to the given concentration of all samples (50 μM) in Tris-HCl buffer (5 mM Tris-HCl/50 mM NaCl) with a pH of 7.4 at 25 °C.[13,23–26]
Most medications involve intercalation and groove binding via GC (guanine/cytosine)-rich and AT (adenine/thymine)-rich domains, respectively. The interactions were determined experimentally by electronic absorption spectrum titration. Moreover, intercalating binding is indicated by bathochromic and hypochromic shifts in the absorption spectra, whereas groove binding of the complexes with DNA is indicated by hyperchromic shifts in the titration curve.[61] Generally, four kinds of non-covalent engagements that can be absolutely critical in the interaction of substances with DNA are most frequently illustrated in the literature: (i) involves a negatively charged phosphate fragment as a result of electrostatic interaction; (ii) influences weak van der Waals force attraction/H-bonding; (iii) interaction of a functional moiety with the grooves (major/minor) of the double-stranded DNA as a result of a molecule sticking due to general attraction, or as a result of water or H-bonding expulsion, etc.; (iv) the stacked base pairs of natural DNA are intercalated by hydrophobic forces. Nevertheless, substances are engaged in the reaction because of […] preferred N-7 position and adenine's N-3 location in DNA. The DNA base pairing may also be prevented due to miscoding. All complexes (1–3), including free ligand (HL), were measured both when DNA was present and when it was absent using ultraviolet–visible spectrophotometric absorption titrations in buffer solution with a pH of 7.4 at 25 °C (Fig. 3). In this case, all substances were exposed to two prominent electronic absorption bands of about 260 nm and 335–343 nm, consequent to the π–π* transitions of the phenyl chromophore and MLCT, respectively. While the amount of DNA in each compound rises, the interaction of the chemical substance with DNA base pairs generates noticeable alterations in the strength and wavelength of the intra-ligand charge transfer bands. […] Using Wolfe–Shimmer eqn (1) and (2), Benesi–Hildebrand eqn (3) and (4) and Sakthi–Krause eqn (5) and (6), the observed overall Kb values for all samples were in the following sequence: (2) > (3) > (1) > (HL). […] It is concluded that the co-planarity of the morpholine-linked ligand and complexation of the 2,2′-bipyridine aromatic system with the metal centre promote the ability of the complex to infiltrate DNA base pairs smoothly. Large aromatic systems may also assist the complex to deeply penetrate the core of the phosphate backbone, and those substances may permit the complex to freely penetrate deep into the DNA base pairs. […] The Wolfe–Shimmer eqn (1) and (2),[62] Benesi–Hildebrand eqn (3) and (4),[63] and Sakthi–Krause eqn (5) and (6) were applied to evaluate the Kb results for all samples, which were obtained by modification of the Lineweaver–Burk and Stern–Volmer equations (Table 1).
The Kb values were measured using the Wolfe–Shimmer eqn (1) and (2) from the linear regression plots of [DNA]/(εa − εf) vs. [DNA] M^−1 for method I and (εb − εf)/(εa − εf) vs. 1/[DNA] M^−1 for method II, respectively (Fig. S15 ^†). The Benesi–Hildebrand binding constant (Kb) values were measured using eqn (3) and (4) from the linear regression plots of [1/(Ax − A0)] vs. {1/[DNA]} M^−1 for method I and [(Amax − A0)/(Ax − A0)] vs. {1/[DNA]} M^−1 for method II, respectively (Fig. S16 ^†). The Kb values were estimated using Sakthi–Krause eqn (5) and (6) from the linear regression plots of [A/(A0 − A)] vs. {1/[DNA]} M^−1 for method I (Fig. S17 ^†) and {1/[DNA]} vs. log[A/(A0 − A)] M^−1 for method II (Fig. S18 ^†). In addition, A0 and A represent the absorbance intensity values in the absence and presence of [DNA], respectively. […]

With [Mn+2].[O-]c1ccccc1N=Cc1ccc(N2CCOCC2)cc1.[O-]c1ccccc1N=Cc1ccc(N2CCOCC2)cc1.c1ccc(-c2ccccn2)nc1 [(1)] the DNA cleavage (DNA) was “no considerable cleavage efficiency”, the “% H (hypochromism)” value (CT-DNA) was 40.61% and the “Kb, BH-I (Benesi–Hildebrand method I)” value (CT-DNA) was 9942 M⁻¹. The “Kb, BH-II (Benesi–Hildebrand method II)” value (CT-DNA) was 21067 M⁻¹, the “Kb, SK-I (Sakthi–Krause method I)” value (CT-DNA) was 11049 M⁻¹ and the “Kb, SK-II (Sakthi–Krause method II)” value (CT-DNA) was 20389 M⁻¹. The “Kb, WS-I (Wolfe–Shimmer method I)” value (CT-DNA) was 18195 M⁻¹ and the “Kb, WS-II (Wolfe–Shimmer method II)” value (CT-DNA) was 20826 M⁻¹.
In the case of [Co+2].[O-]c1ccccc1N=Cc1ccc(N2CCOCC2)cc1.[O-]c1ccccc1N=Cc1ccc(N2CCOCC2)cc1.c1ccc(-c2ccccn2)nc1 [(2)], the DNA cleavage (DNA) is reported as “complete DNA cleavage”, the “% H (hypochromism)” value (CT-DNA) is reported as 36.16% and the “Kb, BH-I (Benesi–Hildebrand method I)” value (CT-DNA) is reported as 10468 M⁻¹. For the same compound, the “Kb, BH-II (Benesi–Hildebrand method II)” value (CT-DNA) was 21524 M⁻¹, the “Kb, SK-I (Sakthi–Krause method I)” value (CT-DNA) was 14965 M⁻¹ and the “Kb, SK-II (Sakthi–Krause method II)” value (CT-DNA) was 22526 M⁻¹. For the same compound, the “Kb, WS-I (Wolfe–Shimmer method I)” value (CT-DNA) was 18806 M⁻¹ and the “Kb, WS-II (Wolfe–Shimmer method II)” value (CT-DNA) was 21379 M⁻¹.
With [Ni+2].[O-]c1ccccc1N=Cc1ccc(N2CCOCC2)cc1.[O-]c1ccccc1N=Cc1ccc(N2CCOCC2)cc1.c1ccc(-c2ccccn2)nc1 [(3)] the DNA cleavage (DNA) was “partial DNA cleavage”, the “% H (hypochromism)” value (CT-DNA) was 43.46% and the “Kb, BH-I (Benesi–Hildebrand method I)” value (CT-DNA) was 18212 M⁻¹. For the same compound, the “Kb, BH-II (Benesi–Hildebrand method II)” value (CT-DNA) was 20938 M⁻¹, the “Kb, SK-I (Sakthi–Krause method I)” value (CT-DNA) was 13001 M⁻¹ and the “Kb, SK-II (Sakthi–Krause method II)” value (CT-DNA) was 20417 M⁻¹. The “Kb, WS-I (Wolfe–Shimmer method I)” value (CT-DNA) was 18207 M⁻¹ and the “Kb, WS-II (Wolfe–Shimmer method II)” value (CT-DNA) was 21275 M⁻¹.
For Oc1ccccc1N=Cc1ccc(N2CCOCC2)cc1 [(HL), 2-(4-morpholinobenzylideneamino)phenol], the DNA cleavage (DNA) was “immobile”, the “% H (hypochromism)” value (CT-DNA) was 37.13% and the “Kb, BH-I (Benesi–Hildebrand method I)” value (CT-DNA) was 6000 M⁻¹. For the same compound, the “Kb, BH-II (Benesi–Hildebrand method II)” value (CT-DNA) was 19515 M⁻¹, the “Kb, SK-I (Sakthi–Krause method I)” value (CT-DNA) was 8775 M⁻¹ and the “Kb, SK-II (Sakthi–Krause method II)” value (CT-DNA) was 17216 M⁻¹. For the same compound, the “Kb, WS-I (Wolfe–Shimmer method I)” value (CT-DNA) was 15169 M⁻¹ and the “Kb, WS-II (Wolfe–Shimmer method II)” value (CT-DNA) was 15480 M⁻¹.
